Common to all, as to format: functional
One assay has as its system DU-145. The assay is described as follows: Growth inhibition of human DU145 cells at 10 uM after 48 hrs by SRB assay. Conditions: DU-145, 48 h, read-out: GI.
The next assay deals with PC-3. The assay is described as follows: Growth inhibition of human PC3 cells at 10 uM after 48 hrs by SRB assay. Conditions: PC-3, 48 h, read-out: GI.
Another assay concerns HEp-2. The assay is described as follows: Growth inhibition of human Hep2 cells at 10 uM after 48 hrs by SRB assay. Conditions: HEp-2, 48 h, read-out: GI.
A further assay concerns COLO 205. The assay is described as follows: Growth inhibition of human COLO205 cells at 10 uM after 48 hrs by SRB assay. Conditions: COLO 205, 48 h, read-out: GI.
Another assay has as its system OVCAR-5. The assay is described as follows: Growth inhibition of human OVCAR5 cells at 10 uM after 48 hrs by SRB assay. Conditions: OVCAR-5, 48 h, read-out: GI.
Another assay relates to Rattus norvegicus. Kind of assay: Antiinflammatory activity in albino Charles-Foster rat assessed as inhibition of carrageenan-induced paw oedema at 50 mg/kg, po administered 30 mins before carrageenan challenge […] after 1-3 hrs relative to control. Also noted: scale not given: the % may be the effect or the level left.
The next assay has as its system MCF7. The assay is described as follows: Growth inhibition of human MCF7 cells at 10 uM after 48 hrs by SRB assay. Conditions: MCF7, 48 h, read-out: GI.

The structures appear in SMILES notation.

On to `Cc1cccc2c(NCC3CCCO3)c3ccccc3nc12` (racemic), for which the inhibition of growth at 10 µM is 17% in the assay on DU-145; 61% in the assay with PC-3; 18% with HEp-2; 46% with COLO 205; 54% with OVCAR-5; 45% in the assay on MCF7. In addition, in the assay on Rattus norvegicus, the Activity was 34.02%.

Regarding `COc1ccc2nc3ccccc3c(NCC3CCCO3)c2c1` (racemic), the inhibition of growth at 10 µM is 9% with DU-145; 37% in the assay on PC-3; 11% in the assay with HEp-2; 61% with COLO 205; 41% in the assay with OVCAR-5; 42% in the assay on MCF7. Also, the Activity in the assay with Rattus norvegicus turned out to be 20.16%.
